Test results as given in patent US7018836B1, “P-TEFb compositions, methods and screening assays” (priority 1996, dated 2006).

Key:
[1] = system: mammalian cells in culture; settings: DRB added to mammalian cells in culture; cited from earlier work
Drosophila TFIIH = experiment: CTD kinase assay with Drosophila TFIIH; format: biochemical; settings: 20 μM DRB
Method: 0.4 μl of purified RNA polymerase II and various protein samples were mixed in 18 μl of 55 mM HMK. The reaction was then initiated by the addition of 2 μl of a solution containing 2 μCi of [γ-^32P]ATP (ICN) and unlabeled ATP at 10 μM, or only unlabeled ATP at concentrations from 1 to 100 μM or other NTPs or dNTPs at concentrations of 1 to 100 μM. Reactions were incubated for the indicated times at 23° C. and then terminated with SDS loading buffer. Samples were analyzed on a 6–15% SDS polyacrylamide gel which was silver stained, dried and subjected to autoradiography if the assay contained label.
To determine whether P-TEFb was related to the protein kinase associated with TFIIH (Roy et al., 1994; Feaver et al., 1994; Cismowski et al., 1995; Serizawa et al., 1995; Shiekhattar et al., 1995), P-TEFb was compared with Drosophila TFIIH purified from Drosophila embryos by the method of Austin and Biggin (1996).

[2] = system: transcription from HIV-1 LTR; experiment: In vitro Tat transactivation in HNE with TAR and DTAR templates (FIG. 8); format: biochemical, human
Method: The transcription template (Nco I-digested pLTR-4/CAT vector containing the HIV-1 LTR from −153 to +80) was used in a pulse-chase transcription experiment. Reactions (12 μl total; 20 mM HEPES, pH 7.6, 7 mM MgCl2, 20 μg/ml DNA template, 3 μl HNE, 64 mM KCl, with 50 μM DRB or 0.3 μl Drosophila P-TEFb (Marshall et al., 1996) as indicated) were pre-incubated for 20 minutes at 30° C., pulsed for 2 minutes by adding ATP, GTP, UTP to 600 μM each and 5 μCi [α-^32P]CTP (˜0.1 mM), and chased for 5 minutes by adding CTP to 1.2 mM. Reactions were stopped, phenol extracted and analyzed on a 6% polyacrylamide gel as described (Marshall and Price, 1995). pLTR-TAR-Luc and pLTR-DTAR-Luc plasmids were digested with Eco RI to generate TAR and DTAR template that were used in the studies. The TAR template contains HIV-1 LTR from −475 to +76, while the DTAR template contains HIV-1 LTR from −475 to +19. Transcription with TAR and DTAR templates generates runoffs of 694 and 646 nucleotides, respectively. The transcription reaction mix contained 20 mM HEPES (pH7.6), 7 mM MgCl2, 60 mM KCl, 0.5 μl HNE (or depHNE as indicated), 20 μg/ml TAR template (or DTAR template as indicated), indicated amount of HIV-1 Tat (86 residue HIV-1 Tat followed by a streptavidin binding tag at its carboxyl terminus) and DRB. […] The transcripts were then analyzed on a 6% polyacrylamide gel as described (Marshall and Price, 1995).

For `OC[C@H]1O[C@@H](n2cnc3cc(Cl)c(Cl)cc32)[C@H](O)[C@@H]1O` [DRB, 5,6-dichloro-1-β-D-ribofuranosylbenzimidazole], which “inhibition in the production of mature mRNA” value [1] is on record?
Its value is 95%.

What about the “sensitivity of CTD kinase activity of TFIIH” value (Drosophila TFIIH) of the same compound?
The value was “unaffected”.

What about the “effect of DRB on Tat-stimulated runoff” value ([2]; 50 μM DRB) of the same compound?
Its value is “mostly inhibited”.

And the “sensitivity to DRB of the effect of Tat on initiation” value ([2]; pulse-only protocol)?
Its value is “not sensitive”.
